This note sets out measurements from BindingDB's records for doi:10.1021/acs.jmedchem.1c00511 (2021).

This assay deals with Vitamin K-dependent protein C (Homo sapiens) (UniProt P04070). As to the kind of experiment: Inhibition of human APC using pyroGlu-Pro-Arg-p-nitroaniline-HCl as substrate measured after 5 mins by plate reader analysis.
Chain of Vitamin K-dependent protein C (Homo sapiens) (P04070 whole entry, looked up): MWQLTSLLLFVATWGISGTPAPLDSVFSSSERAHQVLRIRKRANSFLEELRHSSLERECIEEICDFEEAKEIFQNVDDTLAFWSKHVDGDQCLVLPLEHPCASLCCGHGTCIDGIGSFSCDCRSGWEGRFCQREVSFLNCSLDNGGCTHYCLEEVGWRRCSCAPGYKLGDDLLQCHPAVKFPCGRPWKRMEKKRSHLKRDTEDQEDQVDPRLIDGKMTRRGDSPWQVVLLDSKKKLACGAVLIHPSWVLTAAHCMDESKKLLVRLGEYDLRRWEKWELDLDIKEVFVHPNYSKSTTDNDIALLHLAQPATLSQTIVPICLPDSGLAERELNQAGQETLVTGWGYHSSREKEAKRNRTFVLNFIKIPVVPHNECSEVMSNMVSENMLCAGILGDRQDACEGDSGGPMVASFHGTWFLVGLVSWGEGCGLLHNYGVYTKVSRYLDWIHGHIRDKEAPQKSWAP

With `N#Cc1cccc(C(NCC2CC2)c2ccc(F)c(NC(=O)c3cc(C(F)(F)F)nn3-c3cccc(CN)c3)c2)c1` (single isomer, unassigned; (+)) [(+)-1-(3-(aminomethyl)phenyl)-N-(5-((3-cyanophenyl)(cyclopropyl-methylamino)methyl)-2-fluorophenyl)-3-(trifluoromethyl)-1H-pyrazole-5-carboxamide], the IC50 was greater than 30 µM.

The IC50 is the midpoint of a concentration-inhibition curve. A higher IC50 goes with weaker potency.
